Inconclusive results and toxic doses are left out.

The source of these data is PubChem BioAssay AID308 (DTP/NCI, 2004).

The assay relates to BDF1 mice, L1210 6-MP/6-TG resistant leukemia ip, survival T/C. Briefly: NCI In Vivo Anticancer Drug Screen. Data for tumor model L1210 Leukemia resistant to 6-MP and 6-Thioguanine; NSC 755, NSC 752 (intraperitoneal) in B6D2F1 (BDF1) mice. To be noted: endpoint: mean survival time, higher = longer survival. The method, then: The antitumor activity of compounds was measured in mice bearing transplantable tumors. Survival or tumor size were measured and the results are expressed as the measurement made in the treated group (T) divided by the measurement made in the vehicle treated control group (C). The tumor model used in this assay is L1210 Leukemia resistant to 6-MP and 6-Thioguanine; NSC 755, NSC 752 (intraperitoneal) in B6D2F1 (BDF1) mice

Where [1] appears, read: dose: 37.5 mg/kg/injection, schedule: Q01DX Z (ip), vehicle: saline.
The mark [2] stands for this setting: dose: 75.0 mg/kg/injection, schedule: Q01DX Z (ip), vehicle: saline.
[3] abbreviates: dose: 100.0 mg/kg/injection, schedule: Q01DX Z (ip), vehicle: saline.
The mark [4] stands for this setting: dose: 50.0 mg/kg/injection, schedule: Q01DX Z (ip), vehicle: other.
[5] abbreviates: dose: 25.0 mg/kg/injection, schedule: Q01DX Z (ip), vehicle: saline.
The mark [6] stands for this setting: dose: 20.0 mg/kg/injection, schedule: Q01DX Z (ip), vehicle: carboxymethylcellulose (CMC).

Regarding `C(=C\c1ccccc1)/CSc1ncnc2nc[nH]c12`, the T/C by setting is: (dose: 62.0 mg/kg/injection, schedule: Q01DX015 (ip), vehicle: carboxymethylcellulose (CMC)) 98 % of control; (dose: 125.0 mg/kg/injection, schedule: Q01DX015 (ip), vehicle: carboxymethylcellulose (CMC)) 96 % of control; (dose: 250.0 mg/kg/injection, schedule: Q01DX015 (ip), vehicle: carboxymethylcellulose (CMC)) 91 % of control; (dose: 500.0 mg/kg/injection, schedule: Q01DX015 (ip), vehicle: carboxymethylcellulose (CMC)) 90 % of control; (dose: 1000.0 mg/kg/injection, schedule: Q01DX015 (ip), vehicle: carboxymethylcellulose (CMC)) 90 % of control.
For `O=P1(N(CCCl)CCCl)NCCCO1` (stereo unspecified), the T/C runs as follows: under setting [1], 153 % of control; under setting [2], 94 % of control; under setting [3], 101 % of control.
As to `CN(C)c1nc(N(C)C)nc(N(C)C)n1`, the T/C is, setting by setting: (dose: 4.3 mg/kg/injection, schedule: Q01DX Z (ip), vehicle: other) 101 % of control; (dose: 8.7 mg/kg/injection, schedule: Q01DX Z (ip), vehicle: other) 111 % of control; (dose: 17.5 mg/kg/injection, schedule: Q01DX Z (ip), vehicle: other) 109 % of control; (dose: 35.0 mg/kg/injection, schedule: Q01DX Z (ip), vehicle: other) 111 % of control; under setting [4], 110 % of control; (dose: 100.0 mg/kg/injection, schedule: Q01DX Z (ip), vehicle: other) 98 % of control.
Turning to `CCCC(=O)OCC1OC(n2cnc3c(=S)nc(N)[nH]c32)C(OC(=O)CCC)C1OC(=O)CCC` (stereo unspecified), the T/C is, setting by setting: (dose: 6.0 mg/kg/injection, schedule: Q01DX Z (ip), vehicle: carboxymethylcellulose (CMC)) 113 % of control; (dose: 12.0 mg/kg/injection, schedule: Q01DX Z (ip), vehicle: carboxymethylcellulose (CMC)) 93 % of control; (dose: 24.0 mg/kg/injection, schedule: Q01DX Z (ip), vehicle: carboxymethylcellulose (CMC)) 98 % of control.
Turning to `CN(Cc1cnc2nc(N)nc(N)c2n1)c1ccc(C(=O)N[C@@H](CCC(=O)O)C(=O)O)cc1`, the T/C (dose: 0.6 mg/kg/injection, schedule: Q02DX010 (ip), vehicle: carboxymethylcellulose (CMC)) is 172 % of control; the T/C (dose: 0.9 mg/kg/injection, schedule: Q02DX010 (ip), vehicle: carboxymethylcellulose (CMC)) is 163 % of control; the T/C (dose: 1.3 mg/kg/injection, schedule: Q02DX010 (ip), vehicle: carboxymethylcellulose (CMC)) is 220 % of control; the T/C (dose: 2.0 mg/kg/injection, schedule: Q02DX010 (ip), vehicle: carboxymethylcellulose (CMC)) is 261 % of control; the T/C (dose: 3.0 mg/kg/injection, schedule: Q02DX010 (ip), vehicle: carboxymethylcellulose (CMC)) was 282 % of control; the T/C (dose: 4.5 mg/kg/injection, schedule: Q02DX010 (ip), vehicle: carboxymethylcellulose (CMC)) was 294 % of control. Also, the T/C (dose: 6.75 mg/kg/injection, schedule: Q02DX010 (ip), vehicle: carboxymethylcellulose (CMC)) was 290 % of control.
As for `CC1CCOS(=O)O1` (stereo unspecified), the T/C (dose: 12.5 mg/kg/injection, schedule: Q01DX Z (ip), vehicle: saline) is 101 % of control; the T/C under setting [5] is 106 % of control; the T/C under setting [1] is 97 % of control; the T/C under setting [2] is 99 % of control; the T/C under setting [3] is 91 % of control.
On to `CCCSc1nc(N)nc2nc[nH]c12`, for which the T/C reads like this: (dose: 12.0 mg/kg/injection, schedule: Q01DX Z (ip), vehicle: saline) 114 % of control; under setting [5], 106 % of control; (dose: 50.0 mg/kg/injection, schedule: Q01DX Z (ip), vehicle: saline) 107 % of control; under setting [3], 103 % of control; (dose: 150.0 mg/kg/injection, schedule: Q01DX Z (ip), vehicle: carboxymethylcellulose (CMC)) 91 % of control.
`CCCn1cnc2c(=S)nc[nH]c21`: the T/C was 97 % of control (dose: 12.5 mg/kg/injection, schedule: Q01DX015 (ip), vehicle: carboxymethylcellulose (CMC)); 95 % of control (dose: 25.0 mg/kg/injection, schedule: Q01DX015 (ip), vehicle: carboxymethylcellulose (CMC)); 101 % of control (dose: 50.0 mg/kg/injection, schedule: Q01DX015 (ip), vehicle: carboxymethylcellulose (CMC)); 96 % of control (dose: 100.0 mg/kg/injection, schedule: Q01DX015 (ip), vehicle: carboxymethylcellulose (CMC)).
Turning to `Nc1ncnc2c1ccn2C1OC(CO)C(O)C1O` (stereo unspecified), the T/C by setting is: (dose: 0.03 mg/kg/injection, schedule: Q01DX Z (ip), vehicle: carboxymethylcellulose (CMC)) 99 % of control; (dose: 0.06 mg/kg/injection, schedule: Q01DX Z (ip), vehicle: carboxymethylcellulose (CMC)) 101 % of control; (dose: 0.12 mg/kg/injection, schedule: Q01DX Z (ip), vehicle: carboxymethylcellulose (CMC)) 108 % of control; (dose: 0.25 mg/kg/injection, schedule: Q01DX Z (ip), vehicle: carboxymethylcellulose (CMC)) 104 % of control; (dose: 0.5 mg/kg/injection, schedule: Q01DX Z (ip), vehicle: carboxymethylcellulose (CMC)) 106 % of control; (dose: 1.0 mg/kg/injection, schedule: Q01DX Z (ip), vehicle: carboxymethylcellulose (CMC)) 102 % of control. Moreover, for the setting “dose: 2.0 mg/kg/injection, schedule: Q01DX Z (ip), vehicle: carboxymethylcellulose (CMC)”, the T/C is 98 % of control.
Take `Cn1cnc([N+](=O)[O-])c1Sc1nc(N)nc2nc[nH]c12`: the T/C reads like this: (dose: 7.5 mg/kg/injection, schedule: Q01DX Z (ip), vehicle: carboxymethylcellulose (CMC)) 95 % of control; (dose: 10.0 mg/kg/injection, schedule: Q01DX Z (ip), vehicle: carboxymethylcellulose (CMC)) 92 % of control; (dose: 15.0 mg/kg/injection, schedule: Q01DX Z (ip), vehicle: carboxymethylcellulose (CMC)) 90 % of control; under setting [6], 89 % of control.
`CNS(=O)(=O)c1ncnc2nc[nH]c12`: the T/C by setting is: (dose: 13.0 mg/kg/injection, schedule: Q01DX Z (ip), vehicle: carboxymethylcellulose (CMC)) 114 % of control; (dose: 32.0 mg/kg/injection, schedule: Q01DX Z (ip), vehicle: carboxymethylcellulose (CMC)) 114 % of control; (dose: 47.0 mg/kg/injection, schedule: Q01DX Z (ip), vehicle: carboxymethylcellulose (CMC)) 123 % of control; (dose: 58.0 mg/kg/injection, schedule: Q01DX Z (ip), vehicle: carboxymethylcellulose (CMC)) 108 % of control; (dose: 70.6 mg/kg/injection, schedule: Q01DX Z (ip), vehicle: carboxymethylcellulose (CMC)) 117 % of control; (dose: 107.0 mg/kg/injection, schedule: Q01DX Z (ip), vehicle: carboxymethylcellulose (CMC)) 113 % of control. For the same molecule, the T/C (dose: 160.5 mg/kg/injection, schedule: Q01DX Z (ip), vehicle: carboxymethylcellulose (CMC)) was 105 % of control.
As for `C1CN1c1nc(N2CC2)nc(N2CC2)n1`, the T/C (dose: 0.25 mg/kg/injection, schedule: Q01DX Z (ip), vehicle: saline) is 118 % of control and the T/C (dose: 1.0 mg/kg/injection, schedule: Q01DX Z (ip), vehicle: saline) is 109 % of control.
With `O=c1[nH]c(=O)n(C2CC(O)C(CO)O2)cc1Br` (stereo unspecified), the T/C reads like this: under setting [6], 112 % of control; (dose: 30.0 mg/kg/injection, schedule: Q01DX Z (ip), vehicle: carboxymethylcellulose (CMC)) 114 % of control; (dose: 40.0 mg/kg/injection, schedule: Q01DX Z (ip), vehicle: carboxymethylcellulose (CMC)) 102 % of control; (dose: 60.0 mg/kg/injection, schedule: Q01DX Z (ip), vehicle: carboxymethylcellulose (CMC)) 98 % of control; (dose: 93.0 mg/kg/injection, schedule: Q01DX Z (ip), vehicle: carboxymethylcellulose (CMC)) 117 % of control; (dose: 187.0 mg/kg/injection, schedule: Q01DX Z (ip), vehicle: carboxymethylcellulose (CMC)) 115 % of control. In addition, the T/C reads like this: (dose: 375.0 mg/kg/injection, schedule: Q01DX Z (ip), vehicle: carboxymethylcellulose (CMC)) 112 % of control; (dose: 500.0 mg/kg/injection, schedule: Q01DX Z (ip), vehicle: carboxymethylcellulose (CMC)) 109 % of control.
Take `O=C(OCC1OC(n2cnc3c(=S)nc[nH]c32)C(OC(=O)c2ccc([N+](=O)[O-])cc2)C1OC(=O)c1ccc([N+](=O)[O-])cc1)c1ccc([N+](=O)[O-])cc1` (stereo unspecified): the T/C was 94 % of control (dose: 6.25 mg/kg/injection, schedule: Q01DX015 (ip), vehicle: other); 105 % of control (dose: 12.5 mg/kg/injection, schedule: Q01DX015 (ip), vehicle: other); 88 % of control (dose: 25.0 mg/kg/injection, schedule: Q01DX015 (ip), vehicle: other); 92 % of control under setting [4]; 86 % of control (dose: 400.0 mg/kg/injection, schedule: Q01DX Z (ip), vehicle: other).
